Experimental data as given in ChEMBL document CHEMBL5247641, “Discovery of Potent DYRK2 Inhibitors with High Selectivity, Great Solubility, and Excellent Safety Properties for the Treatment of Prostate Cancer” (J Med Chem, 2023).
Active and inactive are the calls of the source. No cut-off for these calls is given here.

Experiments:
DU-145 [1] = test: Induction of apoptosis in human DU-145 cells assessed as apoptotis rate at 40 uM incubated for 24 hrs by Annexin V-FITC and PI staining based flow cytometry (Rvb= 4.36%); assay type: functional
CWR22R [2] = test: Induction of cell cycle arrest in human 22Rv1 cells assessed as accumulation of cells at G2 phase at 40 uM incubated for 24 hrs by propidium iodide based flow cytometric analysis (Rvb=24.21 %); assay type: functional
DU-145 [3] = test: Induction of cell cycle arrest in human DU-145 cells assessed as accumulation of cells at S phase at 40 uM incubated for 24 hrs by propidium iodide based flow cytometric analysis (Rvb= 29.02%); assay type: functional
CWR22R [4] = test: Induction of cell cycle arrest in human 22Rv1 cells assessed as accumulation of cells at G1 phase at 40 uM incubated for 24 hrs by propidium iodide based flow cytometric analysis (Rvb= 55.28%); assay type: functional
CWR22R [5] = test: Induction of cell cycle arrest in human 22Rv1 cells assessed as accumulation of cells at S phase at 40 uM incubated for 24 hrs by propidium iodide based flow cytometric analysis (Rvb=20.51 %); assay type: functional
DU-145 [6] = test: Induction of cell cycle arrest in human DU-145 cells assessed as accumulation of cells at G2 phase at 40 uM incubated for 24 hrs by propidium iodide based flow cytometric analysis (Rvb= 17.52%); assay type: functional
CWR22R [7] = test: Induction of apoptosis in human 22Rv1 cells assessed as apoptotis rate at 40 uM incubated for 24 hrs by Annexin V-FITC and PI staining based flow cytometry (Rvb= 3.08%); assay type: functional
DU-145 [8] = test: Induction of cell cycle arrest in human DU-145 cells assessed as accumulation of cells at G1 phase at 40 uM incubated for 24 hrs by propidium iodide based flow cytometric analysis (Rvb= 53.46%); assay type: functional
DU-145 [9] = test: Antitumor activity against human DU-145 xenografted in BALB/c nude mouse assessed as tumor growth inhibition at 100 mg/kg,po qd for 21 days; assay type: functional, organism-based; settings: time 21.0 day
[10] = biological target: T1, Dual specificity tyrosine-phosphorylation-regulated kinase 2 (Homo sapiens, UniProt Q92630); test: Inhibition of hexa His-tagged DYRK2 (72 to 479 residues) (unknown origin) expressed in Escherichia coli BL21 (DE3) assessed as substrate phosphorylation using 4E-BP1 as substrate in presence of [gamma33-P]ATP incubated for 2 hrs by scintillation counter analysis
T1 sequence (Q92630 whole entry): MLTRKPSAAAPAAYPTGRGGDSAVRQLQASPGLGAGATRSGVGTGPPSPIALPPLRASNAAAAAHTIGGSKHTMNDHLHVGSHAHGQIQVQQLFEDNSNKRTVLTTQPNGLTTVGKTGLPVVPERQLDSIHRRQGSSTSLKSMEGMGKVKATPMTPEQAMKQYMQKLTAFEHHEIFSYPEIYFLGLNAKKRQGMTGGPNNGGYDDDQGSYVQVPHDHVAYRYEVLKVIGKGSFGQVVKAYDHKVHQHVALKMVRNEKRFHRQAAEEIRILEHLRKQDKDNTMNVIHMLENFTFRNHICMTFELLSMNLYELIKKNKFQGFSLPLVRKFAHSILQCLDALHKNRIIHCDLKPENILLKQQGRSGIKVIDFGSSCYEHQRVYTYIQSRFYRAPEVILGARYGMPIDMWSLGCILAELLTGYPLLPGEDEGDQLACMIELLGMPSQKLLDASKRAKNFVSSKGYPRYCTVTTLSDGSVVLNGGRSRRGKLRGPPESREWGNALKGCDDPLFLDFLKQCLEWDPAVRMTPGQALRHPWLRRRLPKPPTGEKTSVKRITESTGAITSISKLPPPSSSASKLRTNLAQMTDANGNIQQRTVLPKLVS

[11] = biological target: T1, Dual specificity tyrosine-phosphorylation-regulated kinase 2; test: Inhibition of human GST-tagged DYRK2 expressed in Escherichia coli BL21 (DE3) using woodtide as substrate in presence of [gamma33-P]ATP incubated for 30 mins by Scintillation counter analysis

CNC(=O)c1ccc(N2C(=S)N(c3ccc(C#N)c(C(F)(F)F)c3)C(=O)C2(C)C)cc1F [ENZALUTAMIDE]
Activity (DU-145 [1]): 8.01%
Activity (CWR22R [2]): 21.43%
Activity (DU-145 [3]): 26.54%
Activity (CWR22R [4]): 62.89%
Activity (CWR22R [5]): 15.68%
Activity (DU-145 [6]): 16.78%
Activity (CWR22R [7]): 5.85%
Activity (DU-145 [8]): 56.68%
Activity (DU-145 [9]): Active

COc1cnc(Nc2ccc(CN3CCN(C(=O)OC(C)(C)C)CC3)cn2)nc1-c1ccc2scnc2c1
IC50 [10]: > 10000 nM

COc1cc(/C=C/C(=O)CC(=O)/C=C/c2ccc(O)c(OC)c2)ccc1O [CURCUMIN]
IC50 [11]: 2.5 nM

O=C(c1ccc(Nc2ncc(F)c(-c3ccc4scnc4c3)n2)nc1)N1CCN(C(=O)C2CC2)CC1
IC50 [10]: 33 nM

CC(C)(C)OC(=O)N1CCN(Cc2ccc(Nc3ncc(F)c(-c4ccc5scnc5c4)n3)nc2)CC1
IC50 [10]: > 10000 nM

CC(C)(C)OC(=O)N1CCN(C(=O)c2ccc(Nc3ncc(F)c(-c4ccc5scnc5c4)n3)cn2)CC1
IC50 [10]: 16 nM

Cc1cnc(Nc2ccc(CN3CCN(C(=O)OC(C)(C)C)CC3)cn2)nc1-c1ccc2scnc2c1
IC50 [10]: > 10000 nM

CC(C)(C)OC(=O)N1CCN(Cc2ccc(Nc3nccc(-c4ccc5scnc5c4)n3)nc2)CC1
IC50 [10]: > 10000 nM
